Measurements: paper PMC3348524, “Diverse Effects of Glutathione and UPF Peptides on Antioxidant Defense System in Human Erythroleukemia Cells K562” (International Journal of Peptides, 2012)
Like-named read-outs stand apart in the source and are kept apart here. Numbered stars: 1 amine (or outer) side, 2 acyl side, 3 side chain; on linkers, the order of the positions; unused ones are H or OH. Bridge positions count the residues as written; N and C are the ends. Square brackets hold non-standard residues; d marks the D form. Peptide text beside a SMILES is read from it. I, II: the chains in the order shown. γGlu = O=C(O)[C@H](CCC(=O)[*:2])N[*:1]

Key:
[1] = system: equine kidney γ-glutamyltranspeptidase; experiment: Stability towards γ-glutamyltranspeptidase (HPLC-MS); details: 1 mM peptide, 0.3 mg/mL equine kidney GGT, 0.1 M Tris-HCl pH 7.4, 0.1% EDTA, 6 mM Gly-Gly acceptor, 37°C, 1 h; HPLC-MS read-out
Description: 6 mM Gly-Gly was added as an acceptor for γ-Glu moiety [20]. GSH was incubated with GGT under the same conditions as the control. The samples were heat-inactivated, centrifuged at 10000 g and +4°C for 5 min, and kept on ice until analyzed. Supernatants were analyzed on a Prominence HPLC (Shimadzu, Japan) and Q-Trap 3200 (Applied Biosystems, USA) mass spectrometry tandem. Luna C18 100 × 2 mm, 3 μm column from Phenomenex was used for sample separation. Solvent A was a mixture of 99.9% water and 0.1% HCOOH, and solvent B was a mixture of 99.9% acetonitrile and 0.1% HCOOH (mass spectrometry grade, Riedel-de Haėn, Germany). Samples were eluated at a flow rate of 0.1 mL/min, gradient started with 5 min at isocratic flow of solvent A, concentration of solvent B increased up to 30% in 25 min, followed by wash with 100% solvent B in 20 min. Enhanced MS scans were performed in negative mode with rate 1000 amu/s between mass range 50–1700 Da. Ionspray voltage was set to −4500 V, declustering potential to −30 V and entrance potential to −10 V.

[2] = previous work; cited from earlier work
Excerpt: UPF1 and UPF17 have also shown different effects in free radical scavenging experiments. According to the classification of kinetic behavior by Sánches-Moreno et al., UPF17 is classified as fast and UPF1 as intermediate DPPH radical scavenger. […] This raised a question about pKa values for the thiol groups of UPF peptides. Previously, the change of γ-peptide bond to α-peptide bond has also been investigated f ...

[3] = pKa of thiol groups, spectrophotometric titration; assay type: physicochemical; details: 50 μM peptide in phosphate buffered saline, titrated with 1 M NaOH, absorbance at 240 nm
Description: The ratio of thiol and thiolate concentrations were measured spectrophotometrically at 240 nm on a PerkinElmer Lambda 25 spectrometer similarly as previously for GSH and α-GSH [21]. 1 mL of 50 μM peptide solution in phosphate buffered saline (Calbiochem, USA) was titrated with 5 μL volumes of 1 M NaOH and pH and absorbance changes were determined after each addition. The results were corrected to consider the dilution of the assay mixture during titration.

K562 cells = system: K562 cells; design: method as in PMID 17577738, PMID 15489015; details: cited from earlier work
[4] = system: primary culture of cerebellar granule cells; design: method as in PMID 17577738, PMID 15489015; details: cited from earlier work

Row | SMILES | degradation by GGT [1] | pKa of thiol group [2] | pKa of thiol group [3] | concentration up to which nontoxic for K562 cells (K562 cells) | concentration up to which no toxic effect on cerebellar granule cells [4]
1 | COc1ccc(C[C@H](N)C(=O)N[C@@H](CCC(=O)N[C@@H](CSSC[C@H](NC(=O)CC[C@H](NC(=O)[C@@H](N)Cc2ccc(OC)cc2)C(=O)O)C(=O)NCC(=O)O)C(=O)NCC(=O)O)C(=O)O)cc1 [dimerised UPF1] (I: H-Y(Me)[γGlu]CG-OH / II: H-Y(Me)[γGlu]CG-OH; disulfide I:3-II:3) | not detected |  |  |  | 
2 | N[C@@H](CCC(=O)O)C(=O)N[C@@H](CS)C(=O)NCC(=O)O [α-GSH] (H-Glu-Cys-Gly-OH) |  | 9.1 ± 0.1 | 9.1 ± 0.1 |  | 
3 | COc1ccc(C[C@H](N)C(=O)N[C@@H](CCC(=O)N[C@@H](CS)C(=O)NCC(=O)O)C(=O)O)cc1 [UPF1, Tyr(Me)-γ-Glu-Cys-Gly] (H-Y(Me)[γGlu]CG-OH) | not degraded |  | 9.3 ± 0.1 | ≤ 200 µM | up to 100 μM
4 | N[C@@H](CCC(=O)N[C@@H](CS)C(=O)NCC(=O)O)C(=O)O [GSH, γ-L-Glu-L-Cys-Gly, reference compound] |  | 9.0 ± 0.1 | 9.0 ± 0.3 |  | 
5 | COc1ccc(C[C@H](N)C(=O)N[C@@H](CCC(=O)O)C(=O)N[C@@H](CS)C(=O)NCC(=O)O)cc1 [UPF17, Tyr(Me)-Glu-Cys-Gly] (H-Y(Me)ECG-OH) |  |  | 9.4 ± 0.2 | ≤ 200 µM | 
